Results as given in patent US20080200338A1, “Heteroaroyl-Substituted Serineamides” (BASF Aktiengesellschaft, priority 2005, published 2008).

Compound `C=CC(O)C(NC(=O)c1cn(C)nc1C(F)(F)F)C(=O)NC` (racemic) [Compound 3.4, N-(2-Hydroxy-1-methylcarbamoylbut-3-enyl)-1-methyl-3-trifluoromethyl-1H-pyrazole-4-carboxamide] has a melting point of 136 °C.
`C=CC(OC(C)=O)C(NC(=O)c1cn(C)nc1C(F)(F)F)C(=O)NC` (racemic) [Compound 3.10, 1-{Methylcarbamoyl-[(1-methyl-3-trifluoromethyl-1H-pyrazol-4-carbonyl)amino]methyl}-allyl acetate] gave a melting point of 160 °C.
